Results published in patent publication US5741689A, “Methods to inhibit serine kinase activity and to alter intersubunit binding activity of phosphatidylinositol 3-kinase, and serine kinase active sequence of the same” (Ludwig Institute for Cancer Research, priority 1994, dated 1998).

Tests used:
Format in all cases: biochemical, bovine
[1] = molecular target: T1, PI3-kinase p85α/p110 complex (wild type p110, recombinant, expressed in Sf9 cells), protein-serine kinase activity (Bos taurus, UniProt P32871); assay: in vitro protein-serine kinase assay (phosphorylation of p85α) on anti-p110 immunoprecipitates of p85α/p110; details: DTT alone, final concentration 300 mM; FIG. 17 B lane 2
T1 construct: made in house; host or cells: Sf9 insect cells (baculovirus co-infection)
T1 sequence (P32871 whole entry): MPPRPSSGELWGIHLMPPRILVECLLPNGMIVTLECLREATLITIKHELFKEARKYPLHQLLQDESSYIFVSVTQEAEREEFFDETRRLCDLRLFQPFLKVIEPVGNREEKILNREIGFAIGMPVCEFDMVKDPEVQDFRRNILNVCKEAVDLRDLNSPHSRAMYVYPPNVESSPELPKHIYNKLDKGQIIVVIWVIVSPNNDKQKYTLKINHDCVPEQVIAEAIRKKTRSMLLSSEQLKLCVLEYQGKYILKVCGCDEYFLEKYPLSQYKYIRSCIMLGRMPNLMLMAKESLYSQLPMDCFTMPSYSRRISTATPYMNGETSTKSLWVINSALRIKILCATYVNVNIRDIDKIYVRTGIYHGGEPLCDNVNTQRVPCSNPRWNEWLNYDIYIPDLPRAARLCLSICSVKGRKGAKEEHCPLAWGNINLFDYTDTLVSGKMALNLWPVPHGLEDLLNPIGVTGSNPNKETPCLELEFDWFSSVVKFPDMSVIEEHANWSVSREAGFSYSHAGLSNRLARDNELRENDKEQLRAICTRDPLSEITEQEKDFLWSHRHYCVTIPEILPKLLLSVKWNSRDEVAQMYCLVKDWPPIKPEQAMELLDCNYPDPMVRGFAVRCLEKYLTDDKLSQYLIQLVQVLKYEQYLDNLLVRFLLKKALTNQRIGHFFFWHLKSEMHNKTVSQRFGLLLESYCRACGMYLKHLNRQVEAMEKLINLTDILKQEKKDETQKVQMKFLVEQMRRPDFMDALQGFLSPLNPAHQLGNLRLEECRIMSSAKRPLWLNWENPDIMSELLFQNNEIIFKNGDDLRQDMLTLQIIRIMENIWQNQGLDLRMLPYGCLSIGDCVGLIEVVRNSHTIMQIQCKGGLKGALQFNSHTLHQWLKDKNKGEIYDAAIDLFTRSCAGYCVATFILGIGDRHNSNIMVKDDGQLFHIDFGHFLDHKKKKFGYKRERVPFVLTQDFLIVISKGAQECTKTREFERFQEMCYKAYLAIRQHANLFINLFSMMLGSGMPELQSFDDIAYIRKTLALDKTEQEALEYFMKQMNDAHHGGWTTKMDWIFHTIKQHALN
T1 sequence (P23727 whole entry partner): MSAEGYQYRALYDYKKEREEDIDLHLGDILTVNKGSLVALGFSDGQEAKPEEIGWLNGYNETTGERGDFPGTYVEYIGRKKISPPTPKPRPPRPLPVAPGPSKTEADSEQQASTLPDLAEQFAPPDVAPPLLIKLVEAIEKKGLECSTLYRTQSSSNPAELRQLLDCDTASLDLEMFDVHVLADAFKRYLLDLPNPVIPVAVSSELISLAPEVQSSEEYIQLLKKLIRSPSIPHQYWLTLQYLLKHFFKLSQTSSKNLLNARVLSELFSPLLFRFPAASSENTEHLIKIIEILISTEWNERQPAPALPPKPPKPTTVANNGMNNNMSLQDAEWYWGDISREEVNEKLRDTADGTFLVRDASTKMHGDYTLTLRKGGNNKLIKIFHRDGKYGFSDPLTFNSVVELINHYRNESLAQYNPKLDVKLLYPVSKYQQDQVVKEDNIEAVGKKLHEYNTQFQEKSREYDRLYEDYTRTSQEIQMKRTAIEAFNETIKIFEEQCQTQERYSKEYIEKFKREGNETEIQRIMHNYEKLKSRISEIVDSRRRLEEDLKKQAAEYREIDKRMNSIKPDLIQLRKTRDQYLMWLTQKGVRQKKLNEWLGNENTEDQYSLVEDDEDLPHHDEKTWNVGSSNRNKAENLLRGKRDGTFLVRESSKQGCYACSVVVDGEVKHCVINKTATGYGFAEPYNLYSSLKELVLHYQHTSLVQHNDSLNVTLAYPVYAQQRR
Protocol: Anti-p110 immunoprecipitates of p85α/p110 were used to study the kinetics of phosphorylation. The Km (ATP) for the phosphorylation of p85α was measured as approximately 4 μM. The stoichiometry of phosphorylation of p85α was then measured in the presence of excess ATP (50 μM). Approximately 0.9 mol of phosphate was incorporated into one mol of p85α protein.
A further experiment to determine in vitro kinase activity with treatment of Nbs2 and DTT was also conducted. Lysates of Sf9 cells that had been coinfected with p85α/p110 baculoviruses were also treated as follows: the lysates were immunoprecipitated with anti-p110 antibodies and treated as follows: untreated (see FIG. 17, B, lane 1); 300 mM DTT (lane 2); 0.3 mM Nbs2 (lane 3); pretreated with 0.3 mM Nbs2 and then incubated with 3 mM DTT, 30 mM DTT, 300 mM DTT (lanes 4, 5, 6 respectively). Samples were then subjected to in vitro kinase assays and analysis by SDS-PAGE was conducted. Phosphorylated proteins were visualized by autoradiography.
The p110 protein was immunoprecipitated from insect cells, and equal amounts of each GST fusion protein or the GST protein alone, were mixed with p110 and the proteins were allowed to phosphorylate in vitro. […] Phosphorylated proteins were analyzed by SDS-PAGE and autoradiography.

[2] = molecular target: T2, PI3-kinase p85α/p110 complex (wild type, recombinant, expressed in Sf9 cells) (Bos taurus, UniProt P32871); assay: in vitro PI3-kinase assay on anti-p110 immunoprecipitates, p85α/p110 complex; details: DTT alone, final concentration 300 mM; FIG. 17 A lane 2
T2 construct: made in house; host or cells: Sf9 insect cells (baculovirus co-infection)
T2 sequence (P32871 whole entry): as the sequence (P32871 whole entry) above
T2 sequence (P23727 whole entry partner): as the sequence (P23727 whole entry partner) above
Protocol: (§1) Insect cells were infected with p85α/p110 complex, (see FIG. 17, A, lanes 1-6) or p110 alone, (see FIG. 17, B, lanes 7-12). The immunoprecipitates were washed twice with PI3-kinase buffer (20 mM Tris-HCl, pH 7.5, 100 mM NaCl, 0.5 mM EDTA). The samples were untreated or treated with 0.3 mM 5,5'-Dithio-bis [2-nitrobenzoic acid] (Nbs2) for 15 minutes at 22° C. Excess reagent was removed by washing the complexes three times with PI3-kinase buffer and the immunoprecipitate was then incubated for 15 minutes at 22° C. with increasing concentrations of dithiothreitol (DTT). A control sample was incubated with DTT alone at a final concentration of 300 mM. The remaining DTT was removed by washing with lysis buffer and the immunoprecipitates were subjected to PI3-kinase assays or to in vitro protein kinase assays described below.
(§2) The experiment was carried out and the experimental results set forth in FIG. 17, A. In vitro PI3-kinase assays were performed on anti-p110 immunoprecipitates of these cells that had been treated as follows: untreated (see FIG. 17, A, lane 1 and 7); 300 mM DTT (lanes 2 and 8); treated with 0.3 mM Nbs2 (lanes 3 and 9); immunoprecipitates pretreated with 0.3 mM Nbs2 incubated with 3 mM DTT (lanes 4 and 10), 30 mM DTT (lanes 5 and 11); 300 mM DTT (lanes 6 and 12).

[3] = molecular target: T3, PI3-kinase p110 subunit alone (wild type, recombinant, expressed in Sf9 cells) (Bos taurus, UniProt P32871); assay: in vitro PI3-kinase assay on anti-p110 immunoprecipitates, p110 alone; details: DTT alone, final concentration 300 mM; FIG. 17 A lane 8
T3 construct: made in house; host or cells: Sf9 insect cells (baculovirus)
T3 sequence (P32871 whole entry): as the sequence (P32871 whole entry) above
Protocol: as §1, §2

O[C@H](CS)[C@H](O)CS (racemic) [DTT, dithiothreitol]
slight activation: activation of protein serine kinase activity [1] | activation of PI3-kinase activity [2] | activation of PI3-kinase activity [3]
